Data from patent publication US10806785B2, “Immunomodulator compounds and methods of use” (Incyte Corporation, priority 2016, dated 2020).

Biological target: PD-1/PD-L1 (Homo sapiens (Human), UniProt Q9NZQ7)
Test: PD-1/PD-L1 binding assay (HTRF)
Summary of the method: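 HTRF read-out (665/620 nm) after 60 min at 25 °C with 1 nM Eu anti-human IgG and 20 nM APC anti-His. Beforehand, inhibitors were preincubated 40 min with Fc-PD-1 (25-167, […] as listed) and His-PD-L1 (19-238, 10 nM) in PBS pH 7.4 with Tween-20, BSA, 1% DMSO; IC50 from log-concentration curve.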

PD-1/PD-L1, sequence (Q9NZQ7 19-238): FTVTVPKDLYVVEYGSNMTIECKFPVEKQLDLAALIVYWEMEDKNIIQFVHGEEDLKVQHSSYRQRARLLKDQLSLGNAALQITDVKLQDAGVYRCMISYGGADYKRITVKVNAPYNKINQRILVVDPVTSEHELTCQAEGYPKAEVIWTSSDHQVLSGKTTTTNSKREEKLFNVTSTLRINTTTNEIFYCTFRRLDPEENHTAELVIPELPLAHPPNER

IC50, ≤ 10 nM:
CN1CCc2c(nc(C(=O)Nc3cccc(-c4cccc(NC(=O)c5nc6c(n5C)CCN(C[C@H]5CC[C@@H](C(=O)O)CC5)C6)c4Cl)c3Cl)n2C)C1 [Example 69, cis-4-((2-((2,2′-dichloro-3′-(1,5-dimethyl-4,5,6,7-tetrahydro-1H-imidazo[4,5-c]pyridine-2-carboxamido)-[1,1′-biphenyl]-3-yl)carbamoyl)-1-methyl-1,4,6,7-tetrahydro-5H-imidazo[4,5-c]pyridin-5-yl)methyl)cyclohexane-1-carboxylic acid]
Cc1c(NC(=O)c2nc3c(n2C)CCN(C)C3)cccc1-c1cccc(NC(=O)c2nc3c(n2C)CCN(CC2CCC(C)(C(=O)O)CC2)C3)c1Cl (single isomer, unassigned) [Compound 120-1, 4-((2-((2-chloro-3′-(1,5-dimethyl-4,5,6,7-tetrahydro-1H-imidazo[4,5-c]pyridine-2-carboxamido)-2′-methyl-[1,1′-biphenyl]-3-yl)carbamoyl)-1-methyl-1,4,6,7-tetrahydro-5H-imidazo[4,5-c]pyridin-5-yl)methyl)-1-methylcyclohexane-1-carboxylic acid]
C[C@H](O)CN1CCc2c(nc(C(=O)Nc3cccc(-c4cccc(NC(=O)c5nc6c(n5C)CCN(CC[C@H]5CC[C@H](C(=O)O)CC5)C6)c4Cl)c3Cl)n2C)C1 [Example 94, trans-4-(2-(2-((2,2′-dichloro-3′-(5-((S)-2-hydroxypropyl)-1-methyl-4,5,6,7-tetrahydro-1H-imidazo[4,5-c]pyridine-2-carboxamido)-[1,1′-biphenyl]-3-yl)carbamoyl)-1-methyl-1,4,6,7-tetrahydro-5H-imidazo[4,5-c]pyridin-5-yl)ethyl)cyclohexane-1-carboxylic acid]
Cc1c(NC(=O)c2nc3c(n2C)CCN(C2CCCCC2)C3)cccc1-c1cccc(NC(=O)c2nc3c(n2C)CCN(CC[C@H]2CC[C@H](C(=O)O)CC2)C3)c1Cl [Example 131, trans-4-(2-(2-((2-chloro-3′-(5-cyclohexyl-1-methyl-4,5,6,7-tetrahydro-1H-imidazo[4,5-c]pyridine-2-carboxamido)-2′-methyl-[1,1′-biphenyl]-3-yl)carbamoyl)-1-methyl-1,4,6,7-tetrahydro-5H-imidazo[4,5-c]pyridin-5-yl)ethyl)cyclohexane-1-carboxylic acid]
Cc1c(NC(=O)c2nc3c(n2C)CCN(C2CCC(C(=O)O)CC2)C3)cccc1-c1cccc(NC(=O)c2nc3c(n2C)CCN(C2CCOCC2)C3)c1Cl (centres unmarked) [Example 111, 4-(2-((2′-chloro-2-methyl-3′-(1-methyl-5-(tetrahydro-2H-pyran-4-yl)-4,5,6,7-tetrahydro-1H-imidazo[4,5-c]pyridine-2-carboxamido)-[1,1′-biphenyl]-3-yl)carbamoyl)-1-methyl-1,4,6,7-tetrahydro-5H-imidazo[4,5-c]pyridin-5-yl)cyclohexane-1-carboxylic acid]
Cc1c(NC(=O)c2nc3c(n2C)CCNC3)cccc1-c1cccc(NC(=O)c2nc3c(n2C)CCN(CC[C@H]2CC[C@H](C(=O)O)CC2)C3)c1Cl [Example 126, trans-4-(2-(2-((2-chloro-2′-methyl-3′-(1-methyl-4,5,6,7-tetrahydro-1H-imidazo[4,5-c]pyridine-2-carboxamido)-[1,1′-biphenyl]-3-yl)carbamoyl)-1-methyl-1,4,6,7-tetrahydro-5H-imidazo[4,5-c]pyridin-5-yl)ethyl)cyclohexane-1-carboxylic acid]
C[C@H](O)CN1CCc2c(nc(C(=O)Nc3cccc(-c4cccc(NC(=O)c5nc6c(n5C)CCN(CC57CCC(C(=O)O)(CC5)C7)C6)c4Cl)c3Cl)n2C)C1 [Example 181, (S)-4-((2-(2,2′-dichloro-3′-(5-(2-hydroxypropyl)-1-methyl-4,5,6,7-tetrahydro-1H-imidazo[4,5-c]pyridine-2-carboxamido)biphenyl-3-ylcarbamoyl)-1-methyl-6,7-dihydro-1H-imidazo[4,5-c]pyridin-5(4H)-yl)methyl)bicyclo[2.2.1]heptane-1-carboxylic acid]
CN1CCc2c(nc(C(=O)Nc3cccc(-c4cccc(NC(=O)c5nc6c(n5C)CCN(C[C@H]5CC[C@H](C(=O)O)CC5)C6)c4Cl)c3C#N)n2C)C1 [Compound 149, trans-4-((2-((2-chloro-2′-cyano-3′-(1,5-dimethyl-4,5,6,7-tetrahydro-1H-imidazo[4,5-c]pyridine-2-carboxamido)-[1,1′-biphenyl]-3-yl)carbamoyl)-1-methyl-1,4,6,7-tetrahydro-5H-imidazo[4,5-c]pyridin-5-yl)methyl)cyclohexane-1-carboxylic acid]
Cc1c(NC(=O)c2cc(CN3CCCC3)cn(C)c2=O)cccc1-c1cccc(NC(=O)c2nc3c(n2C)CCN(C[C@H](C)O)C3)c1Cl [Example 52, (S)—N-(2-chloro-2′-methyl-3′-(1-methyl-2-oxo-5-(pyrrolidin-1-ylmethyl)-1,2-dihydropyridine-3-carboxamido)biphenyl-3-yl)-5-(2-hydroxypropyl)-1-methyl-4,5,6,7-tetrahydro-1H-imidazo[4,5-c]pyridine-2-carboxamide]
CCN1CCc2c(nc(C(=O)Nc3cccc(-c4cccc(NC(=O)c5nc6c(n5C)CCN(CC57CCC(C(=O)O)(CC5)C7)C6)c4Cl)c3Cl)n2C)C1 [Compound 176, 4-((2-(2,2′-dichloro-3′-(5-ethyl-1-methyl-4,5,6,7-tetrahydro-1H-imidazo[4,5-c]pyridine-2-carboxamido)biphenyl-3-ylcarbamoyl)-1-methyl-6,7-dihydro-1H-imidazo[4,5-c]pyridin-5(4H)-yl)methyl)bicyclo[2.2.1]heptane-1-carboxylic acid]
CN1CCc2c(nc(C(=O)Nc3cccc(-c4cccc(NC(=O)c5nc6c(n5C)CCN(CC57CCC(C(=O)O)(CC5)CC7)C6)c4Cl)c3Cl)n2C)C1 [Example 81, 4-((2-((2,2′-dichloro-3′-(1,5-dimethyl-4,5,6,7-tetrahydro-1H-imidazo[4,5-c]pyridine-2-carboxamido)-[1,1′-biphenyl]-3-yl)carbamoyl)-1-methyl-1,4,6,7-tetrahydro-5H-imidazo[4,5-c]pyridin-5-yl)methyl)bicyclo[2.2.2]octane-1-carboxylic acid]
Cc1c(NC(=O)c2nc3c(n2C)CCN(C2CCC(C)(C(=O)O)CC2)C3)cccc1-c1cccc(NC(=O)c2nc3c(n2C)CCN(C2CCCCC2)C3)c1Cl (centres unmarked) [Example 107, 4-(2-((2′-chloro-3′-(5-cyclohcxyl-1-methyl-4,5,6,7-tetrahydro-1H-imidazo[4,5-c]pyridine-2-carboxamido)-2-methyl-[1,1′-biphenyl]-3-yl)carbamoyl)-1-methyl-1,4,6,7-tetrahydro-5H-imidazo[4,5-c]pyridin-5-yl)-1-methylcyclohexane-1-carboxylic acid]
CCC1(C(=O)O)CCC(N2CCc3c(nc(C(=O)Nc4cccc(-c5cccc(NC(=O)c6nc7c(n6C)CCN(C)C7)c5Cl)c4Cl)n3C)C2)CC1 (centres unmarked) [Example 83, 4-(2-((2,2′-dichloro-3′-(1,5-dimethyl-4,5,6,7-tetrahydro-1H-imidazo[4,5-c]pyridine-2-carboxamido)-[1,1′-biphenyl]-3-yl)carbamoyl)-1-methyl-1,4,6,7-tetrahydro-5H-imidazo[4,5-c]pyridin-5-yl)-1-ethylcyclohexane-1-carboxylic acid]
Cn1c(C(=O)Nc2cccc(-c3cccc(NC(=O)c4nc5c(n4C)CCN(C4CCC(O)CC4)C5)c3Cl)c2Cl)nc2c1CCN(CC[C@H]1CC[C@H](C(=O)O)CC1)C2 (stereo partly drawn) [146 (compound 146-1), trans-4-(2-(2-((2,2′-dichloro-3′-(5-(4-hydroxycyclohexyl)-1-methyl-4,5,6,7-tetrahydro-1H-imidazo[4,5-c]pyridine-2-carboxamido)-[1,1′-biphenyl]-3-yl)carbamoyl)-1-methyl-1,4,6,7-tetrahydro-5H-imidazo[4,5-c]pyridin-5-yl)ethyl)cyclohexane-1-carboxylic acid]
C[C@@H](O)CN1CCc2c(nc(C(=O)Nc3cccc(-c4cccc(NC(=O)c5nc6c(n5C)CCN(CC57CCC(C(=O)O)(CC5)C7)C6)c4Cl)c3Cl)n2C)C1 [Example 182, (R)-4-((2-(2,2′-dichloro-3′-(5-(2-hydroxypropyl)-1-methyl-4,5,6,7-tetrahydro-1H-imidazo[4,5-c]pyridine-2-carboxamido)biphenyl-3-ylcarbamoyl)-1-methyl-6,7-dihydro-1H-imidazo[4,5-c]pyridin-5(4H)-yl)methyl)bicyclo[2.2.1]heptane-1-carboxylic acid]
C[C@H](O)CN1CCc2c(nc(C(=O)Nc3cccc(-c4cccc(NC(=O)c5nc6c(n5C)CCN(C[C@H]5CC[C@H](C(=O)O)CC5)C6)c4Cl)c3Cl)n2C)C1 [Example 66, trans-4-((2-((2,2′-dichloro-3′-(5-((S)-2-hydroxypropyl)-1-methyl-4,5,6,7-tetrahydro-1H-imidazo[4,5-c]pyridine-2-carboxamido)-[1,1′-biphenyl]-3-yl)carbamoyl)-1-methyl-1,4,6,7-tetrahydro-5H-imidazo[4,5-c]pyridin-5-yl)methyl)cyclohexane-1-carboxylic acid]
Cc1c(NC(=O)c2nc3c(n2C)CCN(C2CCOCC2)C3)cccc1-c1cccc(NC(=O)c2nc3c(n2C)CCN(CC[C@H]2CC[C@H](C(=O)O)CC2)C3)c1Cl [Example 122, trans-4-(2-(2-((2-chloro-2′-methyl-3′-(1-methyl-5-(tetrahydro-2H-pyran-4-yl)-4,5,6,7-tetrahydro-1H-imidazo[4,5-c]pyridine-2-carboxamido)-[1,1′-biphenyl]-3-yl)carbamoyl)-1-methyl-1,4,6,7-tetrahydro-5H-imidazo[4,5-c]pyridin-5-yl)ethyl)cyclohexane-1-carboxylic acid]
